Experimental data from paper PMC6001824, “Expressional and functional interactions of two Apis cerana cerana olfactory receptors” (PeerJ, 2018).
Read-outs that look alike come from different tables or passages of the source.

Key:
[1] = target: T1, AcerOr2 (Apis cerana cerana, UniProt G9J1I3); type: cell-based; details: for EC50: Sf9 cells expressing AcerOr2, Ca2+ imaging
Experimental: (§1) Spodoptera frugiperda Sf9 cells were purchased from the Chinese Academy of Sciences Cell Bank (Beyotime, Shanghai, China) were maintained as an adherent culture in Sf-900 III serum-free medium (SFM; Gibco, Invitrogen, Carlsbad, CA, USA) supplemented with 10% fetal bovine serum (Sijiqing, Hangzhou, China) and 100 μg mL^−1 penicillin-streptomycin at a constant temperature of 28 °C in a humidified incubator (Thermo Scientific, Cornelius, OR, USA) in the absence of CO2 in T-25 tissue culture flasks (Corning Inc., Corning, NY, USA). Sf9 cells were grown to approximately 80–90% confluence as observed under a light microscope. Cells were dislodged from the flask by washing with the media contained in the flask. In total, 1 × 10^6 Sf9 cells were suspended in 2 mL of Sf-900 III SFM in each well of a Nunclone six-well tissue culture plate (Corning Inc., Corning, NY, USA). Confluent cells (80–90%) were transiently transfected with 2.0 μg pIB-AcerOr1/pIB-AcerOr2 using 8 μL of Cellfectin II reagent (Invitrogen, Carlsbad, CA, USA) in six-well plates according to the manufacturer’s instructions. The medium containing plasmid DNA and Cellfectin II was removed after incubation of the cells with a DNA/Cellfectin II mix for 3–5 h. The cells were washed twice with fresh Sf-900 III SFM and overlaid with 2 mL of fresh SFM. […] After incubation for 48 h, assays were performed.
(§2) To identify candidate ligands for selected ORs, we tested 32 compounds (most of which were volatile compounds from host plants, including aldehydes, alcohols, monoterpenes, benzoates, and sesquiterpenes) at a final concentration of 10^−6 M by Ca^2+ imaging in an in vitro cell expression system. […] After the cells were transfected for 48 h, the medium was removed and the cells were washed three times with Hank’s balanced salt solution (without Ca^2+). The cells were subsequently cultured at 37 °C in the dark for 30 min in the presence of 2 μmol L^−1 Fluo-4-AM (Beyotime, Shanghai, China) and were stimulated by the chemical odorants. Each test chemical ligand was applied to Fluo-4-loaded Sf9 cells expressing AcerOr1 at a final concentration of 10^−6 M, and the increase in fluorescence caused by the substrate was measured and expressed as a fraction of the fluorescence elicited by the calcium ionophore ionomycin. The Ca^2+-free solution used was Dulbecco’s phosphate buffered saline supplemented with 0.4 mM ethylene glycol tetra-acetic acid (EGTA).
(§3) EC50 values were determined using GraphPad Prism 6.0 (GraphPad; San Diego, CA, USA). The formula used for calculating the concentration-response using a 4-parameter logistic model was as follows: Y=Bottom+(Top−Bottom)/1+10^(LogEC50−X)^*HillSlope where Y and X are the response showing a sigmoid shape and the logarithm of the concentration.

[2] = target: AcerOr1 (Apis cerana cerana, UniProt G8HAQ8); type: cell-based; details: for HillSlope: Sf9 cells expressing AcerOr1, 4-parameter logistic fit; for EC50: Sf9 cells expressing AcerOr1, Ca2+ imaging; for Emax: Sf9 cells expressing AcerOr1, concentration-response, 4-parameter logistic fit; for response of AcerOr1-expressing cells (increase in intracellular Ca2+): odorant at 10^−6 M
Experimental: as §1, §2, §3

[3] = tested on: antennae of Apis cerana cerana; assay: Electroantennography (EAG) of isolated antennae; details: 500 μg μL^−1 of compound in liquid paraffin, relative to blank
Experimental: The level of OR expression in antenna olfactory neurons can be indirectly measured by recording the EAG responses of the isolated antennae to the corresponding odorant ligand. We compared data previously obtained by Ca^2+ imaging in vitro to determine whether these odorants can cause electrophysiological responses in the antennae with physiological activity. […] The compounds were dissolved and diluted in liquid paraffin to final concentrations of 0.1, 1, 10, 100, and 500 μg μL^−1. Pure liquid paraffin wax was used as a blank, and results were calculated relative to the blank. The antennae were carefully cut at the base and placed into EAG electrode probes (Syntech, Hilversum, The Netherlands) with a drop of Spectra 360 electrode gel (Parker Lab, Inc., Fairfield, NJ, USA). Filter paper strips (5 × 50 mm) were loaded with 20 μL of the different test solutions and inserted into glass Pasteur pipettes and served as sources of stimuli. Humidified airflow was delivered at a constant rate of 700 mL min^−1 by an air stimulus controller CS-55 (Syntech, Kirchzarten, Germany). Odor stimuli were administered three times at 2 mL s^−1 for 0.5 s at 30 s intervals. EAG recordings of antennal responses to each stimulus were documented as voltage waveforms using an IDAC-4 computer-operated amplifier controller (Syntech, Kirchzarten, Germany), and the data were analyzed with the EAGPro software (Syntech, Kirchzarten,Germany). A newly prepared antenna was used for each recording. A dose-response curve was plotted using the EAG recordings (in mV) for each concentration.

[4] = target: T1, AcerOr2; type: cell-based; details: odorant at 10^−6 M
[5] = tested on: endogenous Orco in Sf9 cells; assay: Ca2+ imaging of control Sf9 cells transfected with pIB/V5 empty vector; type: cell-based, Spodoptera frugiperda; details: odorant at 10^−6 M

Chain of AcerOr1 (G8HAQ8 entry or part of it): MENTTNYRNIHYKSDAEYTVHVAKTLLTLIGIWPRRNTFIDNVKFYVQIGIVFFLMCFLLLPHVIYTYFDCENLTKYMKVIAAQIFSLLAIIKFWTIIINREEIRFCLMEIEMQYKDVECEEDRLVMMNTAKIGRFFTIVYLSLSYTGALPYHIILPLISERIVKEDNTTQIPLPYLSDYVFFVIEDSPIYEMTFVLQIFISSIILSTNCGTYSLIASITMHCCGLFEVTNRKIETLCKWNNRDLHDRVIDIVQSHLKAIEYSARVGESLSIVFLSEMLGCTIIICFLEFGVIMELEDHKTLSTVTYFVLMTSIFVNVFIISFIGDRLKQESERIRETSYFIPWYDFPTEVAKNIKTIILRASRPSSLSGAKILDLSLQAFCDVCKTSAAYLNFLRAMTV
T1 sequence (G9J1I3 entry or part of it): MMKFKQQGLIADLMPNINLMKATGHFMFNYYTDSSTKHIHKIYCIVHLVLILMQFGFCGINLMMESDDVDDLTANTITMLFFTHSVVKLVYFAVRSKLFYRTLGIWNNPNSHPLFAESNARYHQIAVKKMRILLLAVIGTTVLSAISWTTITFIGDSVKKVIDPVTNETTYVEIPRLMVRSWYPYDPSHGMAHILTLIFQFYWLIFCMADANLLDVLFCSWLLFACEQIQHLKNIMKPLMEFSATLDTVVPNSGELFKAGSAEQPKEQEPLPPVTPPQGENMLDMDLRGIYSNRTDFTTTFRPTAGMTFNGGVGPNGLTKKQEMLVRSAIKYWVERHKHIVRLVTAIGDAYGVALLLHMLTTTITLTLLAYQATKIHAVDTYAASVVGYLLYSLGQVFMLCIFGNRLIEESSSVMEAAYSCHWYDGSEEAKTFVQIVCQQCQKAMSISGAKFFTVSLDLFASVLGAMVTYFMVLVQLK

response of cells expressing AcerOr2 alone (increase in intracellular Ca2+) [4]	HillSlope ([1]; Sf9 cells expressing AcerOr2, 4-parameter logistic fit)	Emax ([1]; Sf9 cells expressing AcerOr2, concentration-response, 4-parameter logistic fit)	SMILES	EC50 ([1]; read-out: EC50) [µM]	HillSlope [2]	EC50 [2]	Emax [2]	response of AcerOr1-expressing cells (increase in intracellular Ca2+) [2]	EC50 [1] [µM]	EAG response [3] [mV]	EC50 ([2]; read-out: EC50) [µM]	response of control cells (pIB/V5 empty vector, endogenous Orco only) [5]
			CCCCCCCCCO [1-Nonanol]	> 10	0.80 ± 0.06	10^−7 to 10^−8 M	69.86 ± 0.44	elicited responses				
			CCCCCCCCO [1-Octyl alcohol]	> 10	0.63 ± 0.04	10^−7 to 10^−8 M	106.77 ± 2.01	elicited responses				
			C=CCc1ccc(O)c(OC)c1 [Eugenol]		0.74 ± 0.06	10^−7 to 10^−8 M	88.53 ± 0.52	elicited responses	> 10	9.92 ± 0.58		
			CCCCCCOC(C)=O [Hexyl acetate]	> 10	0.73 ± 0.05	10^−7 to 10^−8 M	115.94 ± 1.5	elicited responses				
			CCCCCCCCCCCC(=O)O [Lauric acid]	> 10	0.49 ± 0.06	10^−7 to 10^−8 M	138.79 ± 0.5	elicited responses			0.0481	
			CC/C=C\C/C=C\C/C=C\CCCCCCCC(=O)O [Linolenic acid]		0.87 ± 0.03	10^−7 to 10^−8 M	85.74 ± 0.83	elicited responses	> 10	10 ± 0.54		
			CC(C)=CCC/C(C)=C\CO [Nerol]		0.52 ± 0.06	10^−7 to 10^−8 M	184.92 ± 0.55	elicited responses	> 10			
			C=CC(C)=CCC=C(C)C [Ocimene]	> 10	0.50 ± 0.09	10^−7 to 10^−8 M	144.27 ± 0.59	elicited responses			0.0532	
			CCCCCCCCCCC(=O)O [Undecanoic acid]	> 10	0.73 ± 0.05	10^−7 to 10^−8 M	116.69 ± 1.15	elicited responses				
greatest increase in intracellular Ca^2+	0.56 ± 0.08	241.67 ± 0.74	CCc1ccc(NC(=O)CSc2nnc(-c3cccnc3)n2CC)cc1 [VUAA1, N-(4-ethylphenyl)-2-((4-ethyl-5-(3-pyridinyl)-4H-1,2,4-triazol-3-yl)thio) acetamide]	0.0662	1.72 ± 1.48		4.64 ± 0.10	sensitive		18.71 ± 1.45		unable to respond
